Activity calls are given as the source filed them. No cut-off for these calls is given here.
Key:
Bacillus subtilis [1] = assay: Antibacterial activity against Bacillus subtilis assessed as growth inhibition; assay type: functional
Staphylococcus aureus = assay: Antibacterial activity against Staphylococcus aureus assessed as growth inhibition; assay type: functional
Proteus mirabilis [2] = assay: Antibacterial activity against Proteus mirabilis assessed as growth inhibition; assay type: functional
Escherichia coli = assay: Antibacterial activity against Escherichia coli assessed as growth inhibition; assay type: functional, organism-based
Pseudomonas aeruginosa = assay: Antibacterial activity against Pseudomonas aeruginosa assessed as growth inhibition; assay type: functional, organism-based
Klebsiella pneumoniae [3] = assay: Antibacterial activity against Klebsiella pneumoniae assessed as growth inhibition; assay type: functional
[4] = Therapeutic index, ratio of LD50 for african green monkey Vero cells to EC50 for Avian influenza virus H5N1 infected in african green monkey Vero cells; assay type: cell-based; settings: read-out: Ratio LD50/EC50
[5] = tested on: unidentified influenza virus; assay: Antiviral activity against unidentified influenza virus (H5N1) infected African green monkey Vero cells assessed as protection against virus-induced cytopathic effect incubated for 3 days measured on day 4 post infection by MTT assay; assay type: functional, organism-based
Vero = assay: Cytotoxicity against Chlorocebus aethiops (African green monkey) Vero cells after 24 hr by MTT assay; assay type: cell-based; settings: chlorocebus sabaeus
Bacillus subtilis [6] = assay: Antibacterial activity against Bacillus subtilis assessed as growth inhibition at 0.042 uM/ml; assay type: functional, organism-based
Proteus mirabilis [7] = assay: Antibacterial activity against Proteus mirabilis assessed as growth inhibition at 0.042 uM/ml; assay type: functional, organism-based
Klebsiella pneumoniae [8] = assay: Antibacterial activity against Klebsiella pneumoniae assessed as growth inhibition at 0.042 uM/ml; assay type: functional, organism-based

Compound	diameter of the inhibition zone (DIZ) (Bacillus subtilis [1]) [mm]	growth inhibition (GI) (Staphylococcus aureus)	growth inhibition (GI) (Proteus mirabilis [2])	growth inhibition (GI) (Escherichia coli)	growth inhibition (GI) (Pseudomonas aeruginosa)	diameter of the inhibition zone (DIZ) (Klebsiella pneumoniae [3]) [mm]	selectivity ratio [4]	EC50 [5] [uM/ml]	LD50 (Vero) [uM/ml]	diameter of the inhibition zone (DIZ) (Staphylococcus aureus) [mm]	growth inhibition (GI) (Klebsiella pneumoniae [3])	growth inhibition (GI) (Bacillus subtilis [1])	diameter of the inhibition zone (DIZ) (Proteus mirabilis [2]) [mm]	inhibition zone (IZ) (Bacillus subtilis [6]) [mm]	inhibition zone (IZ) (Proteus mirabilis [7]) [mm]	inhibition zone (IZ) (Klebsiella pneumoniae [8]) [mm]
O=C(NC(c1cn(-c2ccccc2)nc1-c1ccccc1)c1c(O)ccc2ccccc12)c1ccccc1 (stereo not given)	20	inactive	inactive	inactive	inactive	14	5.44	0.018	0.098	–	–	–	–	–	–	–
CC(=O)NC(c1c(O)ccc2ccccc12)c1c[nH]c2ccccc12 (stereo not given)	17	–	inactive	inactive	inactive	–	8.95	0.022	0.197	20	inactive	–	–	–	–	–
CC(=O)N[C@H]1[C@H]([C@H](O)[C@H](O)CO)OC(C(=O)O)=C[C@@H]1NC(=N)N [ZANAMIVIR]	–	–	–	–	–	–	15.5	0.015	0.232	–	–	–	–	–	–	–
c1ccc(C2=NC(c3c[nH]c4ccccc34)c3c(ccc4ccccc34)O2)cc1 (stereo not given)	14	–	inactive	inactive	inactive	11	2.12	0.049	0.104	11	–	–	–	–	–	–
O=C(NC(c1c(O)ccc2ccccc12)c1c[nH]c2ccccc12)c1ccccc1 (stereo not given)	11	–	inactive	inactive	inactive	–	16.2	0.019	0.307	11	inactive	–	–	–	–	–
NC1=NC(c2c[nH]c3ccccc23)c2c(ccc3ccccc23)O1 (stereo not given)	12	inactive	inactive	inactive	inactive	13	2.05	0.061	0.125	–	–	–	–	–	–	–
c1ccc(-c2nn(-c3ccccc3)cc2C2NC(c3cn(-c4ccccc4)nc3-c3ccccc3)c3c(ccc4ccccc34)O2)cc1 (stereo not given)	11	–	inactive	inactive	inactive	11	1.98	0.045	0.089	11	–	–	–	–	–	–
NC1=NC(c2cn(-c3ccccc3)nc2-c2ccccc2)c2c(ccc3ccccc23)O1 (stereo not given)	12	inactive	inactive	inactive	inactive	11	5.61	0.0148	0.083	–	–	–	–	–	–	–
NC(=O)NC(c1cn(-c2ccccc2)nc1-c1ccccc1)c1c(O)ccc2ccccc12 (stereo not given)	–	–	–	inactive	inactive	11	6.84	0.025	0.171	24	–	inactive	0	–	–	–
GENTAMICIN	–	–	–	–	–	–	–	–	–	–	–	–	–	21	25	19
NC(=O)NC(c1c(O)ccc2ccccc12)c1c[nH]c2ccccc12 (stereo not given)	–	inactive	inactive	inactive	inactive	11	7	0.031	0.217	–	–	inactive	–	–	–	–
c1ccc2c3c(ccc2c1)OC(c1c[nH]c2ccccc12)NC3c1c[nH]c2ccccc12 (stereo not given)	13	inactive	inactive	inactive	inactive	12	0.726	0.168	0.122	–	–	–	–	–	–	–
CC(=O)NC(c1cn(-c2ccccc2)nc1-c1ccccc1)c1c(O)ccc2ccccc12 (stereo not given)	–	inactive	inactive	inactive	inactive	18	7.19	0.021	0.151	–	–	inactive	–	–	–	–

— ChEMBL document CHEMBL3046280, “Synthesis of 1-amidoalkyl-2-naphthols and oxazine derivatives with study of their antibacterial and antiviral activities” (Med Chem Res, 2013)
